Test results: patent US20070049518A1, “Novel method of treatment of inflammatory skin conditions” (priority 2005, published 2007)

Test system: Cysteine protease in S. aureus 8325-4 culture supernatant
Assay: Cysteine protease activity in supernatant of S. aureus grown with compound
Assay type: cell-based, Staphylococcus aureus
Protocol: Duplicate samples of brain heart infusion medium (5 ml; Becton Dickinson and Co.) containing 10% skimmed milk and 2% (v/v) DMSO vehicle±Compound 12 were inoculated with S. aureus 8325-4 (approximately 10^7 cells in tryptic soy broth) and incubated for 16 h at 37° C./220 rpm. Cultures were centrifuged to remove bacteria and the culture supernatants stored at −70° C. pending analysis of protease activity.
Enzyme activities were measured in mixtures containing 90 mM MOPS (sodium) buffer pH 7.0 (0.1 ml), 0.045% Brij 35, 2% (v/v) DMSO vehicle±Compound 12 and culture supernatant (4 μl). The concentration of compound used was the same as that which had been used to culture the assayed sample. Further additions to the reaction mixtures were as follows. Aureolysin assay: 4.5 mM calcium chloride, 9 μM E-64 (to inhibit cysteine protease activity) and 10 μM Mca-Pro-Leu-Gly-Leu-Dap(Dnp)-Ala-Arg-amide (Bachem); V8 protease assay: 10 μM Mca-Leu-Glu-Val-Asp-Gly-Trp-Lys(Dnp)-amide (Bachem); cysteine protease assay: 1.8 mM cysteine-HCl (pH-adjusted with NaOH), 9 mM EDTA and 0.1 mM Z-Phe-Arg-AMC hydrochloride (Bachem). The rate of product formation at 37° C. was monitored over 6 h taking readings at 15 min intervals using a POLARstar OPTIMA plate reader (BMG LABTECH Ltd) with 320 nm excitation/405 nm emission for aureolysin and V8 assays and 390 nm excitation/460 nm emission for the cysteine protease assay. Enzyme activities were determined from the linear rate of fluorescence increase and converted to percent inhibition by reference to vehicle control samples.

Q: How did the “Inhibition (%) Cysteine protease” value (Compound 12 40 μM in culture and assay) turn out when `CNC(=O)[C@@H](NC(=O)[C@H](CC(=O)NO)CC(C)C)C(C)(C)C` [Compound 12, (S)—N1-((S)-3,3-dimethyl-1-(methylamino)-1-oxobutan-2-yl)-N4-hydroxy-2-isobutylsuccinamide] was run?
A: 27%

Q: And the “Inhibition (%) Cysteine protease” value (Compound 12 79 μM in culture and assay)?
A: 53%

Q: And the “Inhibition (%) Cysteine protease” value (Compound 12 159 μM in culture and assay)?
A: 78%

Q: What about the “Inhibition (%) Cysteine protease” value (Compound 12 317 μM in culture and assay) of the same compound?
A: 87%
